The values that follow come from PMC5711494, “Sterol methyltransferase a target for anti-amoeba therapy: towards transition state analog and suicide substrate drug design” (Journal of Lipid Research, 2017).

For experiment [1], the system named is Ac24-SMT. The experiment can be described thus: Covalent labeling of Ac24-SMT with DHL and 3H-SAM, SDS-PAGE gel slice counting. It is filed as binding, Acanthamoeba castellanii. The settings on record: 45 min, 35°C, SDS-PAGE gel slices. Here is the method: For 24-SMT labeling, partially pure recombinant enzyme obtained from 0.25 salt gradient fraction after Q-chromatography and desalted with buffer exchange (as reported in reference) was generated as a reference specimen of cloned SMT migrating at ∼39 kDa indicated by a protein ladder (Bio-Rad). Protein was stained with Coomassie Brilliant Blue R 250. […] After filtration and concentration, 22 µg total protein was loaded on 12% SDS-PAGE gel against a protein ladder (Bio-Rad) that ranged from 15 to 100 kDa. Next, five bands were excised from the gel corresponding to approximate molecular masses that range between 1) 15–25 kDa, 2) 25–35 KDa, 3) 35–45 kDa, 4) 45–55 kDa, and 5) 55–75 kDa, placed into a vial of 50% hydrogen peroxide, and left overnight at 60°C for digestion ([29]). To these vials was added scintillant and the radioactivity (^3H in dpm) measured by liquid scintillation counting.

For experiment [2], the system named is Acanthamoeba castellanii trophozoites sterol biosynthesis. The experiment can be described thus: Sterol composition of treated Ac trophozoites (GC/MS). It is filed as cell-based. The settings on record: 15 µM, 24 h. On the procedure: Amoeba and HEK cells were harvested at one or more points during growth in the presence and absence of steroidal inhibitor and azole at IC50 or MACs of the inhibitor or at 40 µM for HEK cells. Cell pellets were split with an internal standard of known amounts of 5α-cholestane added to one of the cell pellets for determination of sterol amounts in cells. Cells were saponified directly in aqueous methanolic potassium hydroxide at the reflux temperature for 1 h, which yielded total sterol (free plus sterol released from ester bonds). The resulting neutral lipids obtained by dilution with water and extraction with hexane (Fisher) were analyzed by GC/MS or HPLC-equipped with a diode array detector against cholesterol as a chromatographic reference. GC and HPLC retention times of sterols were compared with those obtained from authentic standards in our steroid collection ([18]–[22]). To determine the trophozoite sterol metabolome, GC/MS analysis of cell pellet nonsaponfiables was typically carried out using control cultures incubated in 5 ml medium in 25 ml T-flasks inoculated with 1 × 10^4 trophozoites/ml and cultured for 72 h. To generate significant cell pellets for sterol analysis of treated cells, trophozoites were cultured in 10 ml medium in 25 ml T-flasks inoculated with 1 × 10^5 cells/ml and grown for 48 h.

For experiment [3], the system named is Ac24-SMT. In words: Time-dependent inactivation of Ac24-SMT (Kitz and Wilson plot). It is filed as biochemical, Acanthamoeba castellanii. On the procedure: To show time-dependent inactivation, experiments were performed with a 100,000 g supernatant fraction containing the recombinant Ac24-SMT in two major steps. First, a preincubation experiment was established; to a 9 ml test tube containing DHL at the test concentrations (varied between 0 and 20 µM), 2.4 mg of total protein (ca. 160 µg SMT), 1.5 ml buffer, and a fixed concentration of SAM (100 µM) were added. The incubation was allowed to incubate for up to 20 min at 35°C. Second, at the time indicated, aliquots (20 µl) of the preincubation preparation were placed in a precooled (dry ice-ethanol) test tube to prevent catalysis. The frozen samples were then individually thawed and filtered three times with phosphate buffer to remove excess unbound inhibitor using Amicon ultracentrifugation filters. The remaining enzyme activity in each sample was determined by assaying each at saturating cycloartenol concentration (100 µM) and [methyl-^3H3] SAM (100 µM; 0.6 µC) under standard assay conditions for 1 h. The logarithmic percentage of remaining enzyme activity was plotted against the incubation time of the enzyme-inhibitor mixture to determine the half-life (T1/2) of inactivation. […] The point of intersection with the ordinate is the T1/2 at saturation from which the kinact can be calculated whereas the intercept along the X-axis gives the −1/Ki from which the Ki can be calculated.

The subject of a further experiment is Ac28-SMT. The experiment can be described thus: Substrate kinetics and product analysis with recombinant Ac28-SMT. It is filed as biochemical, Acanthamoeba castellanii. The settings on record: incubated with SAM cosubstrate. Here is the method:
The SMT constructs were transformed into competent BL21(DE3) cells and transformants selected against 100 µg/ml ampicillin. Expression of the SMT constructs and partial purification of the recombinant proteins followed the procedure described previously ([19]). […] In one tube, cells were induced by addition of isopropyl thio-galactoside at a final concentration of 1 mM and in the other tube, were un-induced. Cells were harvested 2 and 4 h after induction and an equal number of cells (as calculated by OD @600 nm) from induced (+) and un-induced (−) cultures were boiled with 1X Laemmli’s buffer and analyzed by SDS-PAGE (12%). Gel was stained with Coomassie Brilliant Blue (0.2%) to establish the molecular weight and purity of the expressed protein. Total protein concentrations were determined by Bradford dye-binding procedure with bovine γ-globulin as standard. To determine the catalytic activity of the recombinant proteins, enzyme assays were carried out using soluble bacterial extract (100,000 g fraction) in 9 ml test tubes containing a total of 600 µl assay volume for 45 min (initial velocity conditions). The assay buffer contained 20 mM phosphate buffer in 5% (v/v) glycerol at pH 7.5, sterol acceptor emulsified in 12 µl Tween 80 (1.2 g/l), and the substrate tested over the concentration range 5 to 150 µM against 1.2 mg of total protein. The reaction was initiated by the addition of saturating levels of [methyl-^3H3]SAM, 0.9 µCi, at 150 µM. Incubation mixtures were saponified with methanolic potassium hydroxide and extracted with hexane (3 × 1 ml) and concentrated to dryness providing the nonsaponifiable lipid fraction; radioactivity was determined by liquid scintillation counting. […]

Entries after “also recorded” stand apart in the source; their conditions may differ.

Regarding `CC(CCC=C1CC1)C1CC[C@@]2(C)C3=C(CCC12C)C1(C)CCC(O)C(C)(C)C1CC3` (some centres unmarked) [DHL, 26,27-dehydrolanosterol], the “radioactivity associated with protein band of ∼39 kDa” value in the experiment with Ac24-SMT [1] is below 90%. Besides, the “effect on sterol composition” value in experiment [2] is given as “minimal effect”. Further, the “partition ratio (kcat/kinact)” value in the experiment with Ac24-SMT [3] (C26 methyl monol product per inactivation event, 24-SMT) is listed as around 1. Besides, the “kinact (maximum rate of inactivation) of Ac24-SMT” value in the experiment on Ac24-SMT [3] (preincubation with SAM 100 µM, 35°C) was around 0.4 min⁻¹. Also, in the experiment on Ac28-SMT, the “activity / methyl product formation as substrate of Ac28-SMT” value was “not productively bound; also recorded: no activity was observed; also recorded: no methyl products were detected”.
